One may read the TGI as the concentration giving total growth inhibition.

The structures appear in SMILES notation.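 Tested at 5 concentrations; 48 h exposure; 96-well plates; endpoints linearly interpolated, else capped at highest concentration. The concentration for full growth arrest is given as TGI.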

We go through 14 molecules from PubChem BioAssay (NCI).

Common to all, as to assay: DTP human tumour cell line panel, 48 h
For assay [1], the system named is BT-549 breast.
Assay [2] deals with COLO 205 colon.
Assay [3] has as its system HCC-2998 colon.
Assay [4] concerns HCT-116 colon.
For assay [5], the system named is HCT-15 colon.
In assay [6] the test system is NCI-H522 lung.
Assay [7] deals with SK-MEL-28 melanoma.
For assay [8], the system named is SNB-75 CNS.
Assay [9] relates to U251 CNS.
Assay [10] concerns UACC-257 melanoma.

Regarding `CC1=NN=C(C)C1N=Nc1ccc2nc(C)[nH]c2c1`, the total growth inhibition concentration (TGI) in [1] was over 100 µM; in assay [2], over 100 µM; in assay [3] it was over 100 µM; in assay [4] it was over 72.5 µM; in assay [5], over 100 µM; in [6] it was over 100 µM. Besides, the total growth inhibition concentration (TGI) in [7] is over 100 µM; in assay [8], 64.4 µM; in assay [9] it was over 100 µM; in assay [10] it was over 100 µM.

`O=C1CN(c2ccccc2)Cc2nc(Cl)ccc2N1`: the total growth inhibition concentration (TGI) in assay [1], in assay [2], in assay [3], in assay [4], in assay [5] and in assay [6] was over 100 µM throughout. Moreover, the TGI in assay [7], in assay [8], in [9] and in [10] was over 100 µM throughout.

Regarding `CC1(C)OC(=O)C(C)(C)C(=O)O1`, the total growth inhibition concentration (TGI) in assay [1], in assay [2], in assay [3], in assay [4], in assay [5] and in assay [6] was over 100 µM throughout. For the same molecule, the TGI in [7], in assay [8], in assay [9] and in assay [10] was over 100 µM throughout.

`CCOC(=O)c1c[nH]c(C(=O)OCC)c1-c1cccn1-c1ccccc1`: the TGI in [1] is over 100 µM; in assay [2], 38.5 µM; in assay [4], 30.3 µM; in assay [5], over 100 µM; in assay [6] it was 55.4 µM; in assay [7] it was 79.5 µM. The total growth inhibition concentration (TGI) is 52.2 µM in assay [8], 48 µM in [9] and over 100 µM in assay [10].

Turning to `CSc1ncnc2c1cnn2Cc1cnnn1COCC(O)CO` (stereo not given), the concentration for total growth inhibition (TGI) in [1] was over 100 µM; in assay [2], over 100 µM; in assay [3], over 100 µM; in assay [4], over 100 µM; in [5], over 100 µM; in assay [6], 29 µM. In addition, the TGI in assay [7], in [9] and in [10] was over 100 µM in each case.

`Cc1cccc(C2ON=C(c3ccccc3)N2C23CC4CC(CC(C4)C2)C3)c1` (stereo not given): the concentration for total growth inhibition (TGI) in assay [1], in [2], in assay [3], in assay [4], in assay [5] and in assay [6] was over 10 µM throughout. The concentration for total growth inhibition (TGI) in assay [7], in assay [8], in assay [9] and in [10] was over 10 µM each time.

With `CS(=O)(=O)N1CC(CCl)c2ccc(NO)cc21` (stereo not given), the TGI in assay [1] is 25.1 µM; in assay [2], over 57.2 µM; in assay [3], 28.5 µM; in assay [4], 32 µM; in [5], 28.6 µM; in assay [6], 16.3 µM. In addition, the TGI in assay [7] is 40.3 µM; in assay [8], 32.3 µM; in assay [9], 32.8 µM; in [10] it was 40.6 µM.

In the case of `CC(C)[C@@H]1CC[C@@H](C)C[C@H]1OC(=O)c1c2n(c3ccccc13)C[C@H]1OC(C)(C)O[C@@H]21`, the total growth inhibition concentration (TGI) in assay [1], in [2], in assay [3], in assay [4], in assay [5] and in assay [7] was over 100 µM each time. The TGI in assay [9] was 32.5 µM; in assay [10], over 100 µM.

As for `O=C1N=C2SC=C(NC(=S)Nc3ccccc3)N2NC12c1ccccc1-c1ccccc12`, the concentration for total growth inhibition (TGI) in [1], in [2], in [3], in [4], in assay [5] and in assay [6] was over 10 µM in each case. Also, the total growth inhibition concentration (TGI) in assay [7], in [8] and in [10] was over 10 µM throughout.

For the molecule `CCC(NC(C)c1ccccc1)C(=O)c1ccc(OCc2ccccc2)c(OCc2ccccc2)c1` (stereo not given), the TGI in assay [1], in assay [2], in [3], in assay [4], in assay [5] and in assay [6] was over 100 µM throughout. For the same molecule, the concentration for total growth inhibition (TGI) in assay [7], in assay [8] and in [9] was over 100 µM in each case.

On to `CN(C)c1ccc(/C=C/C(=O)c2ccc(O)cc2)cc1`, for which the concentration for total growth inhibition (TGI) in assay [1] was over 59 µM; in [2], 26.6 µM; in [3] it was 38.1 µM; in [4] it was over 68 µM; in assay [5] it was 40.4 µM; in [6] it was 8.58 µM. For the same molecule, the TGI in assay [7] was over 100 µM; in assay [8] it was over 42.7 µM; in assay [9], over 42 µM; in assay [10], over 92.4 µM.

For `CCOC(=O)N/N=C(/N)c1cccc(Br)c1`, the TGI in [1], in assay [2], in [3], in assay [4], in [5] and in [6] was over 100 µM in each case. For the same molecule, the concentration for total growth inhibition (TGI) in [8] and in assay [10] was over 100 µM throughout.

Regarding `Nc1nc(NNc2cccc(F)c2)cc(=O)[nH]1`, the TGI in assay [1] is over 100 µM; in [2], 54.3 µM; in assay [3], over 100 µM; in assay [4], 61.2 µM; in assay [5], over 100 µM; in [7], over 100 µM. For the same molecule, the TGI in assay [9] was 42.9 µM; in assay [10], over 100 µM.

In the case of `CC(=O)CCCCn1c(=O)c2c(nc(Br)n2C)n(C)c1=O`, the concentration for total growth inhibition (TGI) in [1] is over 100 µM; in [2] it was over 100 µM; in assay [3], over 100 µM; in assay [4], over 100 µM; in assay [5] it was over 100 µM; in assay [6] it was 24.9 µM. For the same molecule, the TGI in assay [7], in [8], in assay [9] and in assay [10] was over 100 µM in each case.
